Structures are written as SMILES.

This assay concerns the target T1, hTLR9 (Homo sapiens, UniProt Q9NR96).
T1 construct: expressed in transfected cells; host or cells: HEK-Blue-hTLR9 cells (HEK293)
T1 sequence (Q9NR96 26-1032): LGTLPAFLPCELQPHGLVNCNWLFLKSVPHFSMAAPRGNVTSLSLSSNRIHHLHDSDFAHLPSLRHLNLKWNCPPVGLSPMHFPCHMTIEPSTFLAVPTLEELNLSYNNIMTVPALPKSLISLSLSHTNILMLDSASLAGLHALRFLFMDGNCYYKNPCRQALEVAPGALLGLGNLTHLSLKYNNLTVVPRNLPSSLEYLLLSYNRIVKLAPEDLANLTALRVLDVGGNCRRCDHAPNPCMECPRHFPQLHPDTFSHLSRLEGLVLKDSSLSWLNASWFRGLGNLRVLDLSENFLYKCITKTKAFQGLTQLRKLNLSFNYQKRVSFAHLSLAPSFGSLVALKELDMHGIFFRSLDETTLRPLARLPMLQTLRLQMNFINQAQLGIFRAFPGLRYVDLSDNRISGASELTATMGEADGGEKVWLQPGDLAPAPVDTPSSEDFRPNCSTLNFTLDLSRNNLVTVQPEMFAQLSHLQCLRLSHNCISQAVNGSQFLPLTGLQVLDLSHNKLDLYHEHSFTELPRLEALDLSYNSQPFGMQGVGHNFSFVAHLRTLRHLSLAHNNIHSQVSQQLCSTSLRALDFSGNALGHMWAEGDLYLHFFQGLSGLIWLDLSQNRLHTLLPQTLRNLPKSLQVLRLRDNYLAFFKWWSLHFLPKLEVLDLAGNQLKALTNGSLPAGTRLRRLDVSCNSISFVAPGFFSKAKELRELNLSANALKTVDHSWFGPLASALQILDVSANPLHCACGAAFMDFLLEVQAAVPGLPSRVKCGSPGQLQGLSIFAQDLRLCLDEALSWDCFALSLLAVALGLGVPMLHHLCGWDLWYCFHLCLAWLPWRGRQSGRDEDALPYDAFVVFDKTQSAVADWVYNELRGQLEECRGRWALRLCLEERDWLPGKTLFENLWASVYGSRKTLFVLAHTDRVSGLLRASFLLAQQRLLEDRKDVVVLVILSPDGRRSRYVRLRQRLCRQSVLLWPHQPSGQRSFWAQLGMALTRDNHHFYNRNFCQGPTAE
The assay is described as follows: hTLR9 antagonism (SEAP inhibition assay) in HEK-Blue-hTLR9 (HEK293) cells, ODN-2006 stimulated. The assay is classed as cell-based. As to conditions: HEK-Blue hTLR9, 1 μM; SEAP, HEK-Blue-hTLR9 cells; read-out: hTLR9 inhibitory activity (% at 1 μM). On the procedure: hTLR9 Antagonism (SEAP Inhibition Assay) in HEK293 Cell Lines
The SEAP reporter gene in HEK-Blue™-hTLR9 cells is placed under the control of the IFN-b minimal promoter fused to five NF-kB and AP-1 binding sites. The stimulation with a TLR9 ligand (ODN-2006) activates NF-kB and AP-1 which induces the production of SEAP. Levels of SEAP are determined with QUANTI-Blue™ detection medium that turns purple/blue in the presence of alkaline phosphatase. Decrease in the levels of SEAP production as indicated by reduction in absorbance at 650 nm is directly co-related with the TLR9 inhibitory activity of the antagonist (NCE).
HEK-Blue™-hTLR9 cells were maintained in DMEM with 10% FBS, 1% Penicillin/Streptomycin/Amphotericin (complete growth medium) and 0.2% Normocin. For the assay, cells were dissociated by washing in 1×PBS and re-suspended in complete DMEM. Cells were seeded at a density of 20000 cells per well; (40 μl per well) in a 384 well assay plate.
5 μl of 10× antagonist (NCE) was added to the cells in triplicates for each concentration. The plate was incubated for half an hour at 37° C. with 5% CO2. 5 μl of agonist (ODN-2006) was added and the plate was incubated overnight for 18 hours at 37° C. with 5% CO2. 5 μl of supernatant was transferred to a 384 well reading plate and to this 45 μl of Quanti-Blue™ detection reagent was added. The plate was then incubated for an hour at 37° C. SEAP activity in the supernatant was indicated by change in the pink color of Quanti-Blue™ detection reagent to purple/blue and the absorbance was read at 650 nm in the end point mode.
Consider `CC1(O)CCN(c2ccc(-c3nccc4[nH]c(CN5CCOCC5)cc34)cc2)CC1` [Example A10, 4-methyl-1-[4-[2-(morpholinomethyl)-1H-pyrrolo[3,2-c]pyridin-4-yl]phenyl] piperidin-4-ol], for which the inhibition at 1 µM was found to be 29%.

Regarding `C1=C(c2ccc(-c3nccc4[nH]c(CN5CCOCC5)cc34)cc2)CCN(C2COC2)C1` [Example A11, 4-[[4-[4-[1-(oxetan-3-yl)-3,6-dihydro-2H-pyridin-4-yl]phenyl]-1H-pyrrolo[3,2-c]pyridin-2-yl]methyl] morpholine], the inhibition at 1 µM was 77.5%.

For `CC(C)N1CCN(c2ccc(-c3nccc4[nH]c(CN5CCC(F)(F)C5)cc34)cc2)CC1` [Example A18, 2-[(3,3-difluoropyrrolidin-1-yl)methyl]-4-[4-(4-isopropylpiperazin-1-yl)phenyl]-1H-pyrrolo[3,2-c]pyridine], the inhibition at 1 µM came out at 100%.

For `CC(C)N1CCN(C(=O)c2ccc(-c3nccc4[nH]c(CN5CCOCC5)cc34)cc2)CC1` [Example A19, (4-isopropylpiperazin-1-yl)-[4-[2-(morpholinomethyl)-1H-pyrrolo[3,2-c]pyridin-4-yl]phenyl] methanone], the inhibition at 1 µM turned out to be 90%.

Consider `CN1CCN(C(=O)c2ccc(-c3nccc4[nH]c(CN5CCOCC5)cc34)cc2)CC1` [Example A22, (4-methylpiperazin-1-yl)-[4-[2-(morpholinomethyl)-1H-pyrrolo[3,2-c]pyridin-4-yl]phenyl] methanone], for which the inhibition at 1 µM amounted to 62%.

In the case of `Cc1cc2[nH]c(CN3CCC(F)CC3)cc2c(-c2ccc(N3CCN(C(C)C)CC3)cc2)n1` [Example A27, 2-[(4-fluoro-1-piperidyl)methyl]-4-[4-(4-isopropylpiperazin-1-yl)phenyl]-6-methyl-1H-pyrrolo[3,2-c]pyridine], the inhibition at 1 µM is 96.4%.

As to `CN1CCN(c2ccc(-c3nc(C(F)(F)F)cc4[nH]c(CN5CCOCC5)cc34)cc2)CC1` [Example A31, 4-[[4-[4-(4-methylpiperazin-1-yl)phenyl]-6-(trifluoromethyl)-1H-pyrrolo[3,2-c]pyridin-2-yl]methyl] morpholine], the inhibition at 1 µM was 66%.

As for `CC(C)N1CCN(c2ccc(-c3nc(C(F)(F)F)cc4[nH]c(CN5CCOCC5)cc34)cc2)CC1` [Example A32, 4-[[4-[4-(4-isopropylpiperazin-1-yl)phenyl]-6-(trifluoromethyl)-1H-pyrrolo[3,2-c]pyridin-2-yl]methyl] morpholine], the inhibition at 1 µM came out at 49%.

Take `c1cc2[nH]c(CN3CCOCC3)cc2c(-c2cnn(C3CCNCC3)c2)n1` [Example A45, 4-[[4-[1-(4-piperidyl)pyrazol-4-yl]-1H-pyrrolo [3,2-c]pyridin-2-yl]methyl] morpholine]: the inhibition at 1 µM amounted to 76.1%.

With `c1cc(-c2nccc3[nH]c(CN4CCOCC4)cc23)cc(N2CCNCC2)c1` [Example A46, 4-[[4-(3-(piperazin-1-yl)phenyl)-1H-pyrrolo[3,2-c]pyridin-2-yl]methyl] morpholine], the inhibition at 1 µM amounted to 83.5%.

With `CC(C)N1CCN(c2ncc(-c3nccc4[nH]c(CN5CCOCC5)cc34)s2)CC1` [Example A58, 4-[[4-[2-(4-isopropylpiperazin-1-yl)thiazol-5-yl]-1H-pyrrolo[3,2-c]pyridin-2-yl]methyl]morpholine], the inhibition at 1 µM turned out to be 98%.

Turning to `CN1CCN(c2ccc(-c3nccc4[nH]c(CN5CCOCC5)cc34)cn2)CC1` [Example A59, 4-[[4-[6-(4-methylpiperazin-1-yl)-3-pyridyl]-1H-pyrrolo[3,2-c]pyridin-2-yl]methyl]morpholine], the inhibition at 1 µM worked out at 94.7%.

With `c1cc2[nH]c(CN3CCOCC3)cc2c(-c2ccc(C3CCN(C4COC4)CC3)cc2)n1` [Example A65, 4-[[4-[4-[1-(oxetan-3-yl)-4-piperidyl]phenyl]-1H-pyrrolo[3,2-c]pyridin-2-yl]methyl] morpholine], the inhibition at 1 µM worked out at 70.5%.

Consider `COC(=O)C1CCN(c2ccc(-c3nccc4[nH]c(CN5CCOCC5)cc34)cc2)CC1` [Example A67, methyl 1-[4-[2-(morpholinomethyl)-1H-pyrrolo[3,2-c]pyridin-4-yl]phenyl]piperidine-4-carboxylate], for which the inhibition at 1 µM was found to be 27.5%.

Consider `O=C(O)C1CCN(c2ccc(-c3nccc4[nH]c(CN5CCOCC5)cc34)cc2)CC1` [Example A68, 1-[4-[2-(morpholinomethyl)-1H-pyrrolo[3,2-c]pyridin-4-yl]phenyl]piperidine-4-carboxylic acid], for which the inhibition at 1 µM was 21%.

For the compound `OC1CCN(c2ccc(-c3nccc4[nH]c(CN5CCOCC5)cc34)cc2)CC1` [Example A69, 1-[4-[2-(morpholinomethyl)-1H-pyrrolo[3,2-c]pyridin-4-yl]phenyl]piperidin-4-ol], the inhibition at 1 µM amounted to 73.5%.

Take `CC(C)N1CCN(c2ccc(-c3nccc4[nH]c(CN5CCOCC5)c(Cl)c34)cc2)CC1` [Example A71, 4-[[3-chloro-4-[4-(4-isopropylpiperazin-1-yl)phenyl]-1H-pyrrolo[3,2-c]pyridin-2-yl]methyl]morpholine]: the inhibition at 1 µM stood at 86.1%.

On to `COC(=O)[C@H]1CCCN1Cc1cc2c(-c3ccc(N4CCN(C(C)C)CC4)cc3)nccc2[nH]1` [Example A73, methyl (2R)-1-[[4-[4-(4-isopropyl-piperazin-1-yl)phenyl]-1H-pyrrolo[3,2-c]pyridin-2-yl]methyl]pyrrolidine-2-carboxylate], for which the inhibition at 1 µM worked out at 72%.

`FC(F)(F)CN1CCN(c2ccc(-c3nccc4[nH]c(CN5CCOCC5)cc34)cc2)CC1` [Example A75, 4-[[4-[4-[4-(2,2,2,2-trifluoroethyl)piperazin-1-yl]phenyl]-1H-pyrrolo[3,2-c]pyridin-2-yl]methyl]morpholine]: the inhibition at 1 µM stood at 34.9%.

Consider `c1cc2[nH]c(CN3CCOCC3)cc2c(-c2ccc(N3CCN(Cc4cocn4)CC3)cc2)n1` [Example A76, 4-[[4-[4-[4-(oxazol-4-ylmethyl)piperazin-1-yl]phenyl]-1H-pyrrolo[3,2-c]pyridin-2-yl]methyl]morpholine], for which the inhibition at 1 µM amounted to 81.2%.

Take `CC(C)N1CCN(C2CCC(c3nccc4[nH]c(CN5CCOCC5)cc34)CC2)CC1` (stereo not drawn) [Example A79, 4-[[4-[4-(4-isopropylpiperazin-1-yl)cyclohexyl]-1H-pyrrolo[3,2-c]pyridin-2-yl]methyl]morpholine]: the inhibition at 1 µM stood at 100%.

Turning to `c1cc2[nH]c(CN3CCOCC3)cc2c(-c2ccc(N3CCOCC3)cc2)n1` [Example A83, 4-[4-[2-(morpholinomethyl)-1H-pyrrolo[3,2-c]pyridin-4-yl]phenyl]morpholine], the inhibition at 1 µM is 29.5%.

`Cc1nc(-c2ccc(N3CCN(C(C)C)CC3)cc2)c2cc(CCN3CCCCC3)[nH]c2c1C` [Example B9, 4-[4-(4-isopropylpiperazin-1-yl)phenyl]-6,7-dimethyl-2-[2-(1-piperidyl)ethyl]-1H-pyrrolo[3,2-c]pyridine]: the inhibition at 1 µM was 95.2%.

For the compound `Cc1cc2[nH]c(CCCN3CCOCC3)cc2c(-c2ccc(N3CCN(C)CC3)cc2)n1` [Example C4, 4-[3-[6-methyl-4-[4-(4-methylpiperazin-1-yl)phenyl]-1H-pyrrolo[3,2-c]pyridin-2-yl]propyl]morpholine], the inhibition at 1 µM was found to be 98.7%.

These data come from patent publication US9643967B2, “Pyrrolo[3,2-c]pyridine derivatives as TLR inhibitors” (TAKEDA PHARMACEUTICAL COMPANY LIMITED, priority 2013, dated 2017).
